Patent publication US10473667B2, “Methods apparatuses and systems for detecting and quantifying phosphoproteins” (Oregon Health & Science University, priority 2012, dated 2019)

Legend:
STAT5* [1] = experiment: QD probe assay for STAT5* in whole tumor cells; type: cell-based; details: tumor cells treated with Gleevec vs control (untreated) tumor cells, FIGS. 9A-9B
Excerpt: Briefly; control tumor cells and tumor cells treated with Gleevec™ were processed (fixing, permeabilization, blocking, washing, etc.) to specifically bind optimized concentrations of QD-anti-STAT5* antibody probes to STAT5* protein kinase. After washing, the cells were imaged in multiple slices using the imaging techniques described above, covering the entire 3D space of the cells. QD probe bound to the cells was then compiled and projected on the cell for quantification.

STAT5* [2] = experiment: QD-STAT5* / QD-pSTAT5 probe assay in K562 CML cells; type: cell-based; details: clonal K562 CML cells, FIG. 11A
Excerpt: Relative amounts of bound QD probes in each condition were estimated using the algorithms described above.
An epifluorescent microscope was used to acquire images of cells labeled with QD-pCRKL and QD-pSTAT5 probes, including are digital images of tumor cells (FIG. 10A), tumor cells treated with dasatinib (FIG. 10B), and control cells with antibody omitted (FIG. 10C), Average phosphoprotein levels were computed as the average number of QD probes/cell.

| SMILES | STAT5* activation (QD-anti-STAT5* probe binding) (STAT5* [1]) | heterogeneity in pSTAT5 activity (SD of QDs/cell) (STAT5* [2]) |
| --- | --- | --- |
| Cc1ccc(NC(=O)c2ccc(CN3CCN(C)CC3)cc2)cc1Nc1nccc(-c2cccnc2)n1 [Gleevec™, imatinib] | marked decrease in STAT5* activation | – |
| CC[C@H](C)C(=O)O[C@H]1C[C@@H](C)C=C2C=C[C@H](C)[C@H](CC[C@@H]3C[C@@H](O)CC(=O)O3)[C@H]21 [lovastatin] | – | reduced |
